Assay results published in the supplement of paper PMC11451515.

Test system: P12-Ichikawa
Assay: cell viability relative to DMSO control; higher = less cytotoxic
Conditions: 48 h
In short: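 NOMO1 or SEM cells were plated at 500 cells/well and P12-Ichikawa cells at 1000 cells/well in 1536-well plates (5 μl), after each leukemia line had been adapted for at least four passages in each medium. Pin dosing delivered library compounds in DMSO at 11 threefold concentrations, 47 μM to 0.79 nM. CellTiter-Glo One luminescence was read after 48 h at 37°C. Viability is reported as a per-plate percentage of DMSO wells, with cell-free wells as background.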

[1] = HPLM + 10% dialyzed FBS, 0.000781 µM
[2] = HPLM + 10% dialyzed FBS, 0.00234 µM
[3] = HPLM + 10% dialyzed FBS, 0.00702 µM
[4] = HPLM + 10% dialyzed FBS, 0.0211 µM
[5] = HPLM + 10% dialyzed FBS, 0.0632 µM
[6] = HPLM + 10% dialyzed FBS, 0.19 µM
[7] = HPLM + 10% dialyzed FBS, 0.569 µM
[8] = HPLM + 10% dialyzed FBS, 1.71 µM
[9] = HPLM + 10% dialyzed FBS, 5.12 µM
[10] = HPLM + 10% dialyzed FBS, 15.4 µM
[11] = HPLM + 10% dialyzed FBS, 46.1 µM
[12] = RPMI 5 mM glucose + 10% FBS, 0.000781 µM
[13] = RPMI 5 mM glucose + 10% FBS, 0.00234 µM
[14] = RPMI 5 mM glucose + 10% FBS, 0.00702 µM
[15] = RPMI 5 mM glucose + 10% FBS, 0.0211 µM
[16] = RPMI 5 mM glucose + 10% FBS, 0.0632 µM
[17] = RPMI 5 mM glucose + 10% FBS, 0.19 µM
[18] = RPMI 5 mM glucose + 10% FBS, 0.569 µM
[19] = RPMI 5 mM glucose + 10% FBS, 1.71 µM
[20] = RPMI 5 mM glucose + 10% FBS, 5.12 µM
[21] = RPMI 5 mM glucose + 10% FBS, 15.4 µM
[22] = RPMI 5 mM glucose + 10% FBS, 46.1 µM
[23] = RPMI 5 mM glucose + 10% dialyzed FBS, 0.000781 µM
[24] = RPMI 5 mM glucose + 10% dialyzed FBS, 0.00234 µM
[25] = RPMI 5 mM glucose + 10% dialyzed FBS, 0.00702 µM
[26] = RPMI 5 mM glucose + 10% dialyzed FBS, 0.0211 µM
[27] = RPMI 5 mM glucose + 10% dialyzed FBS, 0.0632 µM
[28] = RPMI 5 mM glucose + 10% dialyzed FBS, 0.19 µM
[29] = RPMI 5 mM glucose + 10% dialyzed FBS, 0.569 µM
[30] = RPMI 5 mM glucose + 10% dialyzed FBS, 1.71 µM
[31] = RPMI 5 mM glucose + 10% dialyzed FBS, 5.12 µM
[32] = RPMI 5 mM glucose + 10% dialyzed FBS, 15.4 µM
[33] = RPMI 5 mM glucose + 10% dialyzed FBS, 46.1 µM

Row | Structure (SMILES) | cell viability [1] [%] | cell viability [2] [%] | cell viability [3] [%] | cell viability [4] [%] | cell viability [5] [%] | cell viability [6] [%] | cell viability [7] [%] | cell viability [8] [%] | cell viability [9] [%] | cell viability [10] [%] | cell viability [11] [%] | cell viability [12] [%] | cell viability [13] [%] | cell viability [14] [%] | cell viability [15] [%] | cell viability [16] [%] | cell viability [17] [%] | cell viability [18] [%] | cell viability [19] [%] | cell viability [20] [%] | cell viability [21] [%] | cell viability [22] [%] | cell viability [23] [%] | cell viability [24] [%] | cell viability [25] [%] | cell viability [26] [%] | cell viability [27] [%] | cell viability [28] [%] | cell viability [29] [%] | cell viability [30] [%] | cell viability [31] [%] | cell viability [32] [%] | cell viability [33] [%]
1 | CC[C@H](C)C(=O)O[C@H]1C[C@@H](C)\C=C2\C=C/[C@H](C)[C@H](CC[C@@H]3C[C@@H](O)CC(=O)O3)[C@@H]12 | 91.8 | 94.1 | 93.3 | 91.4 | 92.1 | 87.7 | 97.1 | 91.7 | 89.3 | 64.5 | 46.8 | 76.3 | 90.1 | 87.6 | 89.1 | 84.5 | 82.3 | 89.6 | 84.9 | 83.1 | 44.1 | 24 | 80 | 89.8 | 89.5 | 85.5 | 94.6 | 88.3 | 84.4 | 77.9 | 77.4 | 54.8 | 29.7
2 | COc1cc(N2CCC(N3CCN(C)CC3)CC2)ccc1Nc1ncc(Cl)c(Nc2ccccc2[S+](=O)([O-])C(C)C)n1 | 106 | 101 | 129 | 140 | 142 | 136 | 144 | 104 | 23.6 | 12.2 | 31.5 | 83.4 | 87.1 | 138 | 149 | 159 | 151 | 147 | 104 | 33.7 | 37.4 | 40.3 | 99.3 | 88.2 | 146 | 161 | 177 | 171 | 161 | 150 | 53.3 | 58 | 65.5
3 | O=c1oc2cc(O)ccc2s1 | 114 | 115 | 111 | 115 | 116 | 117 | 115 | 110 | 108 | 106 | 104 | 115 | 131 | 95.8 | 116 | 117 | 116 | 117 | 107 | 108 | 107 | 96.8 | 104 | 126 | 109 | 112 | 111 | 116 | 114 | 104 | 100 | 103 | 85.9
